We go through 1 molecule from patent US5744023A, “Method for separation and recovery of organogermanium compound” (Asai Germanium Research Institute Co., Ltd., priority 1994, dated 1998).

Where only a bound is given, the exact number is not on record here.

The nature of data set [1]: acute oral toxicity (LD50) in rats. As to conditions: rat, in vivo, orally administered. The source says: (§1) Since these organogermanium compounds are an expensive and valuable resource, it is desirable that they can be separated and recovered from respective reaction mixtures for reutilization. However, both the saccharides and the organogermanium compounds are organic compounds of fairly high molecular weights and no method for effective separation of the two kinds of the compounds is known.

Data set [2] is described as follows: acute oral toxicity (LD50) in mice. As to conditions: mouse, in vivo, orally administered.
Excerpt: as §1

As a reminder, the LD50 is the dose expected to kill half of the subjects tested. Regarding `O=C(O)C[CH2][Ge](=[O])[O][Ge](=[O])[CH2]CC(=O)O` [Compound 1, 2-carboxyethylgermanium sesquioxide], the LD50 in data set [1] was at least 10000 mg/kg; in data set [2], at least 6000 mg/kg.
